Results from patent publication US20150266850A1 (E.I.DU PONT DE NEMOURS AND COMPANY, priority 2012, published 2015).
Marks after values point to notes of the source that are not given here.

Assays:
Format in all cases: in vivo
Details in all cases: 100 = 100% disease control
[1] = system: Erysiphe graminis f. sp. tritici; assay: Test A: wheat powdery mildew, preventive spray on wheat seedlings, visual disease rating
Excerpt: (§1) General protocol for preparing test suspensions for Tests A-E: the test compounds were first dissolved in acetone in an amount equal to 11% of the final volume and then suspended at the desired concentration (in ppm) in acetone and purified water (50/50 mix by volume) containing 250 ppm of the surfactant Trem® 014 (polyhydric alcohol esters). The resulting test suspensions were then used in Tests A-E. Spraying a 200 ppm test suspension to the point of run-off on the test plants was the equivalent of a rate of 800 g/ha.
The test suspension was sprayed to the point of run-off on wheat seedlings. The following day the seedlings were inoculated with a spore dust of Erysiphe graminis f. sp. tritici, (the causal agent of wheat powdery mildew) and incubated in a growth chamber at 20° C. for 8 days, after which time disease ratings were visually made.
(§2) Results for Tests A-E are given in Table A. In the Table, a rating of 100 indicates 100% disease control and a rating of 0 indicates no disease control (relative to the controls). A dash (-) indicates no test results. All results are for 200 ppm except where followed by an “*”, which indicates 40 ppm or “**”, which indicates 50 ppm.

[2] = system: Puccinia recondita f sp. tritici; assay: Test B: wheat leaf rust, preventive spray on wheat seedlings, visual disease rating
Excerpt: as §1
The test suspension was sprayed to the point of run-off on wheat seedlings. The following day the seedlings were inoculated with a spore suspension of Puccinia recondita f sp. tritici (the causal agent of wheat leaf rust) and incubated in a saturated atmosphere at 20° C. for 24 h, and then moved to a growth chamber at 20° C. for 7 days, after which time disease ratings were visually made.
as §2

[3] = system: Septoria tritici; assay: Test C: wheat leaf blotch, preventive spray on wheat seedlings, visual disease rating
Excerpt: as §1
(§3) The test suspension was sprayed to the point of run-off on wheat seedlings. The following day the seedlings were inoculated with a spore suspension of Septoria tritici (the causal agent of wheat leaf blotch) and incubated in a saturated atmosphere at 24° C. for 48 h, and then moved to a growth chamber at 20° C. for 19 days, after which time disease ratings were visually made.
as §2

[4] = system: Septoria nodorum; assay: Test D: wheat glume blotch, preventive spray on wheat seedlings, visual disease rating
Excerpt: as §1
as §3, with “nodorum” for “tritici”, “glume” for “leaf”, “20°” for “24°”, “7” for “19”
as §2

[5] = system: Botrytis cinerea; assay: Test E: tomato botrytis, preventive spray on tomato seedlings, visual disease rating
Excerpt: as §1
The test suspension was sprayed to the point of run-off on tomato seedlings. The following day the seedlings were inoculated with a spore suspension of Botrytis cinerea (the causal agent of tomato botrytis) and incubated in saturated atmosphere at 20° C. for 48 h, and then moved to a growth chamber at 27° C. for 3 additional days, after which time disease ratings were visually made.
as §2

Row | Compound | Test A disease control rating ([1]; 200 ppm) [%] | Test B disease control rating ([2]; 200 ppm) [%] | Test C disease control rating ([3]; 200 ppm) [%] | Test D disease control rating ([4]; 200 ppm) [%] | Test E disease control rating ([5]; 200 ppm) [%] | Test A disease control rating ([1]; 40 ppm (*)) | Test B disease control rating ([2]; 40 ppm (*)) | Test C disease control rating ([3]; 40 ppm (*)) | Test D disease control rating ([4]; 40 ppm (*)) | Test E disease control rating ([5]; 40 ppm (*))
1 | COC(=O)NCc1cc(-c2ccn(-c3ccc(F)cc3OC)n2)ccc1C [Cmpd 27] | 100 | 100 | 100 | 100 | 54 |  |  |  |  | 
2 | COC(=O)NCc1cc(-c2ccn(-c3ccc(C)cc3OC)n2)ccc1C [Cmpd 29] | 99 | 100 | 100 | 100 | 63 |  |  |  |  | 
3 | COC(=O)NCc1cc(-n2ccc(-c3ccc(F)cc3F)n2)ccc1C [Cmpd 30] | 100 | 100 | 100 | 100 | 0 |  |  |  |  | 
4 | COC(=O)NCc1cc(-c2ccn(-c3ccc(OC)cc3OCC#N)n2)ccc1C [Cmpd 32] | 94 | 100 | 100 | 100 | 66 |  |  |  |  | 
5 | COC(=O)NCc1cc(-c2ccn(-c3ccc(Cl)cc3O)n2)ccc1C [Cmpd 33] | 0 | 94 | 2 | 100 | 0 |  |  |  |  | 
6 | C#CCOc1cc(Cl)ccc1-n1ccc(-c2ccc(C)c(CNC(=O)OC)c2)n1 [Cmpd 34] | 100 | 100 | 100 | 100 | 91 |  |  |  |  | 
7 | COC(=O)NCc1cc(-c2ccn(-c3ccc(Cl)cc3OCC#N)n2)ccc1C [Cmpd 35] | 92 | 100 | 100 | 100 | 41 |  |  |  |  | 
8 | COC(=O)NCc1cc(-n2ccc(-c3ccc(Cl)cc3C)n2)ccc1C [Cmpd 36] |  |  |  |  |  | 100* % | 100* % | 100* % | 100* % | 74* %
9 | COC(=O)NCc1cc(-n2ccc(-c3ccc(F)cc3C)n2)ccc1C [Cmpd 37] |  |  |  |  |  | 95* % | 100* % | 100* % | 100* % | 77* %
10 | COC(=O)NCc1cc(-n2ccc(-c3ccc(Cl)cc3F)n2)ccc1C [Cmpd 39] |  |  |  |  |  | 99* % | 100* % | 100* % | 100* % | 53* %
11 | COC(=O)NCc1cc(-n2ccc(-c3ccc(F)cc3Cl)n2)ccc1C [Cmpd 40] |  |  |  |  |  | 100* % | 100* % | 100* % | 100* % | 80* %
12 | COC(=O)NCc1cc(-n2ccc(-c3ccc(C)cc3Cl)n2)ccc1C [Cmpd 41] |  |  |  |  |  | 100* % | 100* % | 100* % | 100* % | 36* %
13 | COC(=O)NCc1cc(-n2ccc(-c3ccc(C)cc3F)n2)ccc1C [Cmpd 42] |  |  |  |  |  | 100* % | 100* % | 99* % | 100* % | 65* %
14 | COC(=O)NCc1cc(-n2ccc(-c3ccc(C)nc3Cl)n2)ccc1C [Cmpd 43] |  |  |  |  |  | 98* % | 100* % | 87* % | 100* % | 62* %
